We go through 12 compounds from ChEMBL document CHEMBL5291721, “A preclinical secondary pharmacology resource illuminates target-adverse drug reaction associations of marketed drugs” (Nat Commun, 2023).

The target in assay [1] is T1, Muscarinic acetylcholine receptor M2 (Homo sapiens, UniProt P08172).
T1 sequence (P08172 whole entry): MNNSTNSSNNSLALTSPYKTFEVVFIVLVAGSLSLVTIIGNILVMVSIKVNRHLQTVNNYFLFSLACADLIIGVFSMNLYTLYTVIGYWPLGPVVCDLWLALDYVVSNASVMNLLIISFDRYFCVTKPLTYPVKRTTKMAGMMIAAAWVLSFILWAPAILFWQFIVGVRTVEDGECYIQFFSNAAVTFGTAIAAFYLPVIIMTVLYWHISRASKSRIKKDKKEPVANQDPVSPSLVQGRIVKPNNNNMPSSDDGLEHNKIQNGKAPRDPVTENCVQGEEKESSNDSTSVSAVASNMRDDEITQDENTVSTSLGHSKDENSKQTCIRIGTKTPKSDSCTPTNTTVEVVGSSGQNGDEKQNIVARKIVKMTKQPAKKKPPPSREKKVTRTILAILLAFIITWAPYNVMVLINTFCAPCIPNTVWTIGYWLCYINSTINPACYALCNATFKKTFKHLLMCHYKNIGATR
The assay is classed as functional, cell-based.

Assay [2] has as its target T1, Muscarinic acetylcholine receptor M2. The assay is classed as functional, cell-based. This is another data set of the same source.
Assay [3] concerns the target Gamma-aminobutyric acid receptor subunit alpha-1 (Rattus norvegicus, UniProt P62813).
Assay [4] deals with 5-hydroxytryptamine receptor 2B (Homo sapiens, UniProt P41595). The assay is classed as functional, cell-based.
Chain of 5-hydroxytryptamine receptor 2B (P41595 whole entry): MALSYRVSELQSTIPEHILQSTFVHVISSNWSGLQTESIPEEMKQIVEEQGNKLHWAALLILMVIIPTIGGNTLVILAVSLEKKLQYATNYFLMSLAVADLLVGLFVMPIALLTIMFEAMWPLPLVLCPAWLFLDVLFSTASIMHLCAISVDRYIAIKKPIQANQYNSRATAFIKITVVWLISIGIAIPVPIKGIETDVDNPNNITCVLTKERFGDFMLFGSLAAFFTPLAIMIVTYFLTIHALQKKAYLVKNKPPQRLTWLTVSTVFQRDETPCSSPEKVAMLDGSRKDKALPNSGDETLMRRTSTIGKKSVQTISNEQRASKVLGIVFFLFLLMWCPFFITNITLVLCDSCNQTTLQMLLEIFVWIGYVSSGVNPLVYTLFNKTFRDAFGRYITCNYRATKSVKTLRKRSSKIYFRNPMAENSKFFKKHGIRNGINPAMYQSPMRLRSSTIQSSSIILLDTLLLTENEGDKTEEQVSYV
Assay [5] addresses Delta-type opioid receptor (Homo sapiens, UniProt P41143).
In assay [6] the target is 3',5'-cyclic-AMP phosphodiesterase 4D (Homo sapiens, UniProt Q08499). The assay is classed as functional.
Chain of 3',5'-cyclic-AMP phosphodiesterase 4D (Q08499 whole entry): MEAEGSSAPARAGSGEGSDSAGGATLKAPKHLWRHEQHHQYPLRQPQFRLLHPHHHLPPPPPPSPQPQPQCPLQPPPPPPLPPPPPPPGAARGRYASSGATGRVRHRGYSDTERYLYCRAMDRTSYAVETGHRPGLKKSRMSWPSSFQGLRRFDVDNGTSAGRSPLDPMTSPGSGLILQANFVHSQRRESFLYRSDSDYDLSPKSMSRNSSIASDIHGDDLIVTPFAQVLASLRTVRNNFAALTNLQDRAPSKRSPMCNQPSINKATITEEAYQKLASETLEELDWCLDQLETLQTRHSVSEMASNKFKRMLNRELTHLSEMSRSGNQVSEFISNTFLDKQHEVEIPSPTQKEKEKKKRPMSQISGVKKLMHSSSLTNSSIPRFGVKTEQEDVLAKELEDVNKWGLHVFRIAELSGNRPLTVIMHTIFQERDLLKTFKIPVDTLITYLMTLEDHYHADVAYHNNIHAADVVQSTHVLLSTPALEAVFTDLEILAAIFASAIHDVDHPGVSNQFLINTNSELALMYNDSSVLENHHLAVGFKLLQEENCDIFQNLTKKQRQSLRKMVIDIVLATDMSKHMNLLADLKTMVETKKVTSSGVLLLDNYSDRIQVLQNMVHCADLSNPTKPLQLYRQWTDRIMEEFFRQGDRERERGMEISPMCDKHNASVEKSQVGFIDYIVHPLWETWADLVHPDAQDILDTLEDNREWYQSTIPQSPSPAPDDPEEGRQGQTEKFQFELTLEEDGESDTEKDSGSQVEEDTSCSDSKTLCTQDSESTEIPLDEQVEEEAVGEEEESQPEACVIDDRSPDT
Assay [7] concerns the target T2, Progesterone receptor (Homo sapiens, UniProt P06401).
T2 sequence (P06401 whole entry): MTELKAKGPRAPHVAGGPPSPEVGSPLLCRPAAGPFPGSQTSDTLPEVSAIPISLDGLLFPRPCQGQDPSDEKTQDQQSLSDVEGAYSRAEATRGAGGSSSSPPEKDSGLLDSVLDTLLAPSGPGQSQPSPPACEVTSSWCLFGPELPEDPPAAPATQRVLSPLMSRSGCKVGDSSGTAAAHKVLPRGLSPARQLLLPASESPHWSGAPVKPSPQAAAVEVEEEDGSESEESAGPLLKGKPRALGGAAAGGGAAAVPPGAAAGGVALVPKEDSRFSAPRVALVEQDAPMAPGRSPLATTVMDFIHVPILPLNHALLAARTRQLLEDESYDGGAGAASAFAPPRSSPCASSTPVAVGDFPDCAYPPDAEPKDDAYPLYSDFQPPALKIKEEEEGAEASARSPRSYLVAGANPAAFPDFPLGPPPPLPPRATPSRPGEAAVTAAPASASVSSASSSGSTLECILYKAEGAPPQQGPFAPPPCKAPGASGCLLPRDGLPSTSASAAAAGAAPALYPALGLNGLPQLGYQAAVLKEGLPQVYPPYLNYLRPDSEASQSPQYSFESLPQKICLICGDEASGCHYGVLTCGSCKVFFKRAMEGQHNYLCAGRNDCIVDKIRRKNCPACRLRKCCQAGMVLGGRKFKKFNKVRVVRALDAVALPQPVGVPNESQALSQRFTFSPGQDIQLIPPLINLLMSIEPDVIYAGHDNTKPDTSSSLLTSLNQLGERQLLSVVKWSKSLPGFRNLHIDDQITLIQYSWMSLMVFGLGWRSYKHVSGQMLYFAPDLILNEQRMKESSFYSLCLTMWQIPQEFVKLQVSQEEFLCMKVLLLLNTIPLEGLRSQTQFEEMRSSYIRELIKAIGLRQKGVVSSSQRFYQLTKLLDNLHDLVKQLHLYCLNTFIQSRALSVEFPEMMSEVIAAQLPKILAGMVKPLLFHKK
The assay is classed as functional.

In assay [8] the target is T3, Prostaglandin G/H synthase 1 (Rattus norvegicus, UniProt Q63921).
T3 sequence (Q63921 whole entry): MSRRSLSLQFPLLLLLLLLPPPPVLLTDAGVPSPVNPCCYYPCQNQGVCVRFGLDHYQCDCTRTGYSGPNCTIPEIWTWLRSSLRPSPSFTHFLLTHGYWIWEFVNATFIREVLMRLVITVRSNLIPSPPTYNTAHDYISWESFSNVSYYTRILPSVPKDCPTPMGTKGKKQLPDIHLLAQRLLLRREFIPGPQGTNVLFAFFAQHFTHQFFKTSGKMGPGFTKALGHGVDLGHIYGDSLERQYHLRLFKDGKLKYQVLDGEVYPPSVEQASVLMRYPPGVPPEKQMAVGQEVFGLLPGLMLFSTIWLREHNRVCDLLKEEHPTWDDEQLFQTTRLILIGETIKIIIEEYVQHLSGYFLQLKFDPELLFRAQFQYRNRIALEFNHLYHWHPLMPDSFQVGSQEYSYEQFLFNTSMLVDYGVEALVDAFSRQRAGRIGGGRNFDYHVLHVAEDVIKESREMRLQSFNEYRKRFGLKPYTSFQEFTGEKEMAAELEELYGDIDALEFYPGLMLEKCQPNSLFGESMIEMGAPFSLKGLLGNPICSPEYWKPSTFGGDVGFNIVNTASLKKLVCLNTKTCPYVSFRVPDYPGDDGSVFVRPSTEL
The assay is classed as functional.

Assay [9] concerns the target Sodium-dependent noradrenaline transporter (Homo sapiens, UniProt P23975).
Assay [10] has as its target T4, 5-hydroxytryptamine receptor 2C (Homo sapiens, UniProt P28335).
T4 sequence (P28335 whole entry): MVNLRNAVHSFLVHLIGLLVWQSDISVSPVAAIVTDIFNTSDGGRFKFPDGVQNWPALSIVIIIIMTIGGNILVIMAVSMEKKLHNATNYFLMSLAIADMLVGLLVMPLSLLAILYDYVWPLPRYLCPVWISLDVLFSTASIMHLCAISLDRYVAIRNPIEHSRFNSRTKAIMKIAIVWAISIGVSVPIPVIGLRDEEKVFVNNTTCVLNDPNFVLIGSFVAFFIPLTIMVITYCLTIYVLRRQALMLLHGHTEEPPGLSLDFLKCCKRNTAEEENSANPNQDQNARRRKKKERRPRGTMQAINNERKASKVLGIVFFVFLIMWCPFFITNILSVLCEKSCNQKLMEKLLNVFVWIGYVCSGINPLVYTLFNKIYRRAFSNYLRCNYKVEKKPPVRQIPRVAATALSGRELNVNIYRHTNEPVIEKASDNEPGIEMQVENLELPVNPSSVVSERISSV

Assay [11] deals with Beta-2 adrenergic receptor (Homo sapiens, UniProt P07550).
Chain of Beta-2 adrenergic receptor (P07550 whole entry): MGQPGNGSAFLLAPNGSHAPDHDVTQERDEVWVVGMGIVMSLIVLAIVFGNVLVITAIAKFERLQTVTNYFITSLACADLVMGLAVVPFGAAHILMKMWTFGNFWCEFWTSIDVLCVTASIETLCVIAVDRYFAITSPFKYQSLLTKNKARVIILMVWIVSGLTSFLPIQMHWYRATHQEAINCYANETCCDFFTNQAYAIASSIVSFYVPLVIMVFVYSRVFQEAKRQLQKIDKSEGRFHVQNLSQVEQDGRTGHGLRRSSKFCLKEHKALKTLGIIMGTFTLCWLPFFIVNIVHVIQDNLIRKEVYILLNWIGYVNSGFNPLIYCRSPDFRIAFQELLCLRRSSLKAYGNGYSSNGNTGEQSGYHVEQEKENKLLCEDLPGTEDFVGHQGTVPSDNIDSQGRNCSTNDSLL
Assay [12] concerns the target Voltage-dependent L-type calcium channel subunit alpha-1C (Rattus norvegicus, UniProt P22002). The assay is classed as functional.
Also: assay procedure not described here.

Chain of Gamma-aminobutyric acid receptor subunit alpha-1 (P62813 whole entry): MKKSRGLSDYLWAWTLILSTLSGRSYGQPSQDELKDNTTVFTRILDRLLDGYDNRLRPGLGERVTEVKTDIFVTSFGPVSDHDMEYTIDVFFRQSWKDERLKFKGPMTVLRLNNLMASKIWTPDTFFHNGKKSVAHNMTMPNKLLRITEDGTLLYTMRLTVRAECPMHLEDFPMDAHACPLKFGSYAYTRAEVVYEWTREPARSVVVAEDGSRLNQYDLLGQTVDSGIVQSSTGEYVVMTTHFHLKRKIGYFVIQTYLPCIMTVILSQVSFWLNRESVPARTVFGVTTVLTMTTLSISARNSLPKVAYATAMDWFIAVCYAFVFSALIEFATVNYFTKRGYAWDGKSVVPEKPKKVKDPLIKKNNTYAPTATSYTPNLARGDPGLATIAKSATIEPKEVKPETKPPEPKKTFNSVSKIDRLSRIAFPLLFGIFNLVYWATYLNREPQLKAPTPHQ
Chain of Delta-type opioid receptor (P41143 whole entry): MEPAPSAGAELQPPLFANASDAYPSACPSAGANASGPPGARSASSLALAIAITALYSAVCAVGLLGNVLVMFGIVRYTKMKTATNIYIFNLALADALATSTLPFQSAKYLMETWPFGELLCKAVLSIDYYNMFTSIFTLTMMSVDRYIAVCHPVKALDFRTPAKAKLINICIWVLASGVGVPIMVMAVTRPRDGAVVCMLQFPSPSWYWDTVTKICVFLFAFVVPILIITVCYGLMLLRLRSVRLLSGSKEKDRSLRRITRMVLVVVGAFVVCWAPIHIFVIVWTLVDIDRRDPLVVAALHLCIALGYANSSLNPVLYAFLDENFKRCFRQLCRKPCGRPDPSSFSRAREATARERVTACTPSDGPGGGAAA
Chain of Sodium-dependent noradrenaline transporter (P23975 whole entry): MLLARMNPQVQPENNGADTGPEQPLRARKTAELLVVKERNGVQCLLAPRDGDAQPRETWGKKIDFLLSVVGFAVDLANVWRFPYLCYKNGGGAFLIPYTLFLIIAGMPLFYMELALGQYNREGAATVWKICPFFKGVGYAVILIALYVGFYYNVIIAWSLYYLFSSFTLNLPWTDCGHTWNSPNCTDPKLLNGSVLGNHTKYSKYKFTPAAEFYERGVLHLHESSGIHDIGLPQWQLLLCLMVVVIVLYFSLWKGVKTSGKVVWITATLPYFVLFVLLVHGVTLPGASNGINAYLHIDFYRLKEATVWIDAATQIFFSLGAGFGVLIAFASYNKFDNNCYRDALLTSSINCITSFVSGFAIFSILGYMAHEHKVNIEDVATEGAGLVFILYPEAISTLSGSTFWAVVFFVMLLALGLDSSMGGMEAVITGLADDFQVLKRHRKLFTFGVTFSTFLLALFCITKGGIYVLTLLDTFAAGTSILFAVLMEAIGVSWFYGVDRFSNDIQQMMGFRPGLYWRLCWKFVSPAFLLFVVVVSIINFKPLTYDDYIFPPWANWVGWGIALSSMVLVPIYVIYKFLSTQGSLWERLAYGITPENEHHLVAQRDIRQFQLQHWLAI

What is called AC50 is the concentration at which the activity in the assay is half-maximal. For `COc1cc(C(=O)OCc2cccc(COC(=O)c3cc(OC)c(OC)c(OC)c3)n2)cc(OC)c1OC` [PIROZADIL], the AC50 in assay [1], in assay [2], in [3], in [4], in assay [5] and in [6] was above 30 µM throughout. The AC50 in assay [7], in assay [8] and in assay [9] was above 30 µM each time.

Turning to `c1ccc(C2(N3CCCCC3)CCCCC2)cc1` [PHENCYCLIDINE], the AC50 in assay [1], in [2], in assay [4], in [5], in assay [6] and in [7] was above 30 µM in each case. In addition, the AC50 in [8] is above 30 µM; in assay [9], 12 µM.

`O=C(NCCO[N+](=O)[O-])c1cccnc1` [NICORANDIL]: the AC50 in [1], in [2], in assay [3], in assay [4], in [10] and in assay [5] was above 30 µM each time. Besides, the AC50 in assay [6], in assay [7], in assay [8] and in [9] was above 30 µM throughout.

Turning to `CO/N=C(\C(=O)N[C@@H]1C(=O)N2C(C(=O)O)=C(CSc3nc(=O)c(=O)[nH]n3C)CS[C@H]12)c1csc(N)n1` [CEFTRIAXONE], the AC50 in assay [1], in assay [2], in [4], in [10], in [5] and in assay [6] was above 30 µM in each case. The AC50 is 23 µM in [7], above 30 µM in [8] and above 30 µM in assay [9].

Regarding `CCCCCCCC(=O)CC[C@@H]1[C@@H](C/C=C\CCCC(=O)OC(C)C)[C@@H](O)C[C@H]1O` [UNOPROSTONE ISOPROPYL], the concentration at half-maximal activity (AC50) in assay [4] was 0.89 µM; in assay [5], above 30 µM; in assay [6], 9.6 µM; in [7], 21 µM; in assay [8], above 30 µM; in [9], 7.2 µM.

With `C[N+]12CCC(CC1)C(OC(=O)C(O)(c1ccccc1)c1ccccc1)C2` (centres undefined), the AC50 in assay [11], in assay [1], in [4], in [10], in assay [5] and in [6] was above 30 µM each time. Also, the AC50 in [7], in assay [8] and in assay [9] was above 30 µM throughout.

For `O=c1[nH]c2ccccc2n1CCCN1CCN(C(c2ccccc2)c2ccccc2)CC1` [OXATOMIDE], the AC50 in assay [1] was above 30 µM; in [2] it was 6.6 µM; in assay [3], above 30 µM; in assay [10], 1.7 µM; in assay [5], above 30 µM; in assay [6], above 30 µM. Also, the half-maximal activity concentration (AC50) in assay [7] is above 30 µM; in assay [8], above 30 µM; in assay [9], 3.2 µM.

Consider `CCOC(=O)[C@@H](N)Cc1ccc(-c2cc(O[C@H](c3ccc(Cl)cc3-n3ccc(C)n3)C(F)(F)F)nc(N)n2)cc1` [TELOTRISTAT ETHYL], for which the AC50 in assay [1], in [2], in [3], in [4], in assay [10] and in assay [5] was above 30 µM each time. Also, the AC50 was 5 µM in assay [6], above 30 µM in assay [7], above 30 µM in assay [8] and 16 µM in [9].

With `COc1cc2[nH]c(C)c(CCN3CCN(c4ccccc4)CC3)c2cc1OC` [OXYPERTINE], the AC50 in assay [1] was above 30 µM; in assay [2], above 30 µM; in [3], above 30 µM; in assay [4], 0.12 µM; in [10], 0.49 µM; in [5], above 30 µM. In addition, the AC50 in assay [6] is 9.8 µM; in assay [7], above 30 µM; in assay [8], above 30 µM; in [9] it was 14 µM.

Consider `CC(=O)[C@H]1CC[C@H]2[C@@H]3C[C@H](C)C4=CC(=O)CC[C@]4(C)[C@H]3[C@@H](O)C[C@]12C` [MEDRYSONE], for which the AC50 in assay [11], in assay [12], in [1], in [2], in [3] and in assay [4] was above 10 µM each time. Moreover, the AC50 in [10] was above 30 µM; in assay [5], above 30 µM; in assay [6], above 30 µM; in assay [8] it was above 10 µM; in assay [9], above 10 µM.

Regarding `CO/N=C(\C(=O)N[C@@H]1C(=O)N2C(C(=O)O)=CCS[C@H]12)c1csc(N)n1` [CEFTIZOXIME], the AC50 in assay [1] is above 30 µM; in assay [2], above 30 µM; in assay [4] it was above 30 µM; in assay [6], above 30 µM; in assay [7], 26 µM; in assay [8], above 30 µM. In assay [9], this compound registered an AC50 above 30 µM.

On to `CCCCOc1ccc(C(=O)CCN2CCCCC2)cc1` [DYCLONINE], for which the AC50 in assay [11], in assay [12], in [1], in assay [2], in assay [3] and in [4] was above 10 µM throughout. For the same compound, the AC50 in [10] was above 10 µM; in assay [5] it was above 10 µM; in assay [6], 11 µM; in assay [8] it was above 30 µM; in assay [9], 2.3 µM.
